Where a name gives a salt, the structure may show the parent alone.

The values that follow come from ChEMBL document CHEMBL2074019, “Functional characterization of human organic anion transporting polypeptide B (OATP-B) in comparison with liver-specific OATP-C” (Pharm Res, 2001).

Common to all, as to assay type: functional, cell-based
The target in data set [1] is T1, Solute carrier organic anion transporter family member 1B1 (Homo sapiens, UniProt Q9Y6L6).
T1 sequence (Q9Y6L6 whole entry): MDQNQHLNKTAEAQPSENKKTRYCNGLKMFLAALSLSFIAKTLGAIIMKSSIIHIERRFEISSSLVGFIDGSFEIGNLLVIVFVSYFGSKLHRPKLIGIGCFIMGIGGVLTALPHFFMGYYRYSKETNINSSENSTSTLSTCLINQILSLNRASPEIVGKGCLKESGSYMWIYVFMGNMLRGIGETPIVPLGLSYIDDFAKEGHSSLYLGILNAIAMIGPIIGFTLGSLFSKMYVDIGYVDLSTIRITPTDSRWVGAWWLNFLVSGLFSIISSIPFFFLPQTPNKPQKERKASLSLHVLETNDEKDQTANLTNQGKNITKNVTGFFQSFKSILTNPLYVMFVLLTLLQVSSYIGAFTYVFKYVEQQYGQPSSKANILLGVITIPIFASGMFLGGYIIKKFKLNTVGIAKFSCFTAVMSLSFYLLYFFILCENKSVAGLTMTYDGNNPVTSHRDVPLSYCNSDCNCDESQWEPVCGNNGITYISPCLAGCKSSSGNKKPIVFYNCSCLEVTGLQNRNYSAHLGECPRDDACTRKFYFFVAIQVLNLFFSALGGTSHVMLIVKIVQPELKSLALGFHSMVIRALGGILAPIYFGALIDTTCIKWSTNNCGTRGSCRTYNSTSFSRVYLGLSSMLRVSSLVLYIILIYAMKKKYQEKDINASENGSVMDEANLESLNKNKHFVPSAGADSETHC
Description: TP_TRANSPORTER: inhibition of E1S uptake (E1S: 0.04 uM, Estrone-3-glucuronide: 100 uM) in OATP-C-expressing HEK293 cells. The following applies: hek293, 100 µM.

In data set [2] the target is T2, Solute carrier organic anion transporter family member 2B1 (Homo sapiens, UniProt O94956).
T2 sequence (O94956 whole entry): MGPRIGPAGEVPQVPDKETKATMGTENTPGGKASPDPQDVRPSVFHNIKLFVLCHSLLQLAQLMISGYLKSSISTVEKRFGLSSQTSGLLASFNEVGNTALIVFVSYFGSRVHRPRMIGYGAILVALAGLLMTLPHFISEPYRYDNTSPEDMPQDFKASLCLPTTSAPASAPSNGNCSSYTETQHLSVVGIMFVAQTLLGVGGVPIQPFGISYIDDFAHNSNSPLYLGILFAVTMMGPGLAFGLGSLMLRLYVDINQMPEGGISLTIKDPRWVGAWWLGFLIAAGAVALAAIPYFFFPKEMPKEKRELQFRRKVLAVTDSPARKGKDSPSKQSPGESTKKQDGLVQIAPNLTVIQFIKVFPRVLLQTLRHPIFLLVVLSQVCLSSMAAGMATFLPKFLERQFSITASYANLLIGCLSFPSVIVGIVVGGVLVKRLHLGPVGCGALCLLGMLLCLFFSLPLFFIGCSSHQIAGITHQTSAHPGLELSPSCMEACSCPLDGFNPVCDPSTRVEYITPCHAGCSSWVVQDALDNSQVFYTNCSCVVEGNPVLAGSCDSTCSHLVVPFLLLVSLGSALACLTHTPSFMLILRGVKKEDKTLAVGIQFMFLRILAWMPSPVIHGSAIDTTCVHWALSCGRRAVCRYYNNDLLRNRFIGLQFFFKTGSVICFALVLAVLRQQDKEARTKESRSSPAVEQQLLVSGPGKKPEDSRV
As to the kind of experiment: TP_TRANSPORTER: inhibition of E1S uptake (E1S: 0.04 uM, Estradiol-3-sulfate: 100 uM) in OATP-B-expressing HEK293 cells. As to conditions: hek293, 100 µM.

Data set [3] has as its target T1, Solute carrier organic anion transporter family member 1B1. As to the kind of experiment: TP_TRANSPORTER: inhibition of E1S uptake (E1S: 0.04 uM, Estradiol-3-sulfate: 100 uM) in OATP-C-expressing HEK293 cells. As to conditions: hek293, 100 µM.
Data set [4] has the same target. Description: TP_TRANSPORTER: inhibition of E1S uptake (E1S: 0.04 uM, E217betaG: 100 uM) in OATP-C-expressing HEK293 cells. As to conditions: hek293, 100 µM.
For data set [5] the target is unchanged. Description: TP_TRANSPORTER: inhibition of E217betaG uptake in OATP-C-expressing HEK293 cells.
For data set [6] the target is unchanged. As to the kind of experiment: TP_TRANSPORTER: inhibition of E1S uptake (E1S: 0.04 uM, E2 3SO4 17betaG: 100 uM) in OATP-C-expressing HEK293 cells. The following applies: hek293, 100 µM.
Data set [7] has the same target. Description: TP_TRANSPORTER: inhibition of E1S uptake (E1S: 0.04 uM, beta-Estradiol: 100 uM) in OATP-C-expressing HEK293 cells. As to conditions: hek293, 100 µM.
For data set [8], the target named is T2, Solute carrier organic anion transporter family member 2B1. As to the kind of experiment: TP_TRANSPORTER: inhibition of E1S uptake (E1S: 0.04 uM, beta-Estradiol: 100 uM) in OATP-B-expressing HEK293 cells. As to conditions: hek293, 100 µM.
Data set [9] shares this target. Description: TP_TRANSPORTER: inhibition of E1S uptake (E1S: 0.04 uM, #Estrone: 100 uM) in OATP-B-expressing HEK293 cells. The following applies: hek293, 100 µM.
Data set [10] concerns the target T1, Solute carrier organic anion transporter family member 1B1. As to the kind of experiment: TP_TRANSPORTER: inhibition of E1S uptake (E1S: 0.04 uM, #Estrone: 100 uM) in OATP-C-expressing HEK293 cells. The following applies: hek293, 100 µM.
Substrate in data set [11]: C[C@]12CC[C@@H]3c4ccc(OS(=O)(=O)O)cc4CC[C@H]3[C@@H]1CCC2=O
As to the kind of experiment: TP_TRANSPORTER: uptake in OATP-B-expressing HEK293 cells.

Substrate in data set [12]: C[C@]12CC[C@@H]3c4ccc(O)cc4CC[C@H]3[C@@H]1CC[C@@H]2O[C@@H]1O[C@H](C(=O)O)[C@@H](O)[C@H](O)[C@H]1O
As to the kind of experiment: TP_TRANSPORTER: uptake in OATP-C-expressing HEK293 cells.

In the case of `C[C@]12CC[C@@H]3c4ccc(O[C@@H]5O[C@H](C(=O)O)[C@@H](O)[C@H](O)[C@H]5O)cc4CC[C@H]3[C@@H]1CCC2=O`, the Activity entry in data set [1] was “inhibitor [(at a rough estimate) 40 % of control]”.
As to `C[C@]12CC[C@@H]3c4ccc(OS(=O)(=O)O)cc4CC[C@H]3[C@@H]1CC[C@@H]2O`, the results for the Activity result in data set [2] and in [3] were “inhibitor [(at a rough estimate) 30 % of control]” and “inhibitor [(at a rough estimate) 10 % of control]”, respectively.
In the case of `C[C@]12CC[C@@H]3c4ccc(O)cc4CC[C@H]3[C@@H]1CC[C@@H]2O[C@@H]1O[C@H](C(=O)O)[C@@H](O)[C@H](O)[C@H]1O` [ESTRADIOL 17B GLUCURONIDE], the Activity result in data set [4] was “inhibitor [(at a rough estimate) <1 % of control]”. Further, the affinity in [5] corresponds to a Ki of 4430 nM.
`C[C@]12CC[C@@H]3c4ccc(OS(=O)(=O)O)cc4CC[C@H]3[C@@H]1CC[C@@H]2O[C@@H]1O[C@H](C(=O)O)[C@@H](O)[C@H](O)[C@H]1O` [ESTRADIOL GLUCURONIDE SULFATE]: in data set [6], the Activity result was “inhibitor [(at a rough estimate) 40 % of control]”.
In the case of `C[C@]12CC[C@@H]3c4ccc(O)cc4CC[C@H]3[C@@H]1CC[C@@H]2O` [ESTRADIOL], the Activity entry in [7] is “inhibitor [(at a rough estimate) 35 % of control]”; in [8] it was “inhibitor [(at a rough estimate) 60 % of control]”.
For the molecule `C[C@]12CC[C@@H]3c4ccc(OS(=O)(=O)O)cc4CC[C@H]3[C@@H]1CCC2=O` [ESTRONE SULFURIC ACID], the affinity in [5], expressed as Ki, was 45.8 nM.
On to `C[C@]12CC[C@@H]3c4ccc(O)cc4CC[C@H]3[C@@H]1CCC2=O` [ESTRONE], for which the results for the Activity result in data set [9] and in [10] were “inhibitor [(at a rough estimate) 45 % of control]” and “inhibitor [(at a rough estimate) 40 % of control]”, respectively.

B1: Solute carrier organic anion transporter family member 2B1 (Homo sapiens) (protein)
chain: T2 sequence (O94956 whole entry)
Turning to B1, the Michaelis constant (Km) (usually the substrate concentration at which the rate is half of its maximum) in data set [11] stood at 12.5 µM.

B2: Solute carrier organic anion transporter family member 1B1 (Homo sapiens) (protein)
chain: T1 sequence (Q9Y6L6 whole entry)
Turning to B2, the Michaelis constant (Km) in data set [12] is 3.71 µM.
